Assay results: article PMC5955586, “Transport of enniatin B and enniatin B1 across the blood-brain barrier and hints for neurotoxic effects in cerebral cells” (PLoS ONE, 2018)

Assays:
PBCEC = conditions: cited from earlier work
PBCEC monolayer = assay: Lucifer yellow permeability through PBCEC monolayer; assay type: in vitro ADME, porcine
Description: Before starting each experiment, the TEER values and the electrical capacitance of all cell layers were measured via cellular impedance spectroscopy (cellZscope®, nanoAnalytics, Münster, Germany). […] TEER values relate to the constitution of the tight junctions limiting paracellular transfer of compounds. In addition to the TEER, electrical capacitances (CCl) were monitored for 48 h. Cellular phospholipid bilayers act like an electrical capacitor and also contribute to the cellular impedance. Changes of the CCl value give information about the integrity of the cell monolayer. In this experiment, a parallel set up was applied. For each treatment, one triplicate of filters was monitored via cellular impedance spectroscopy over the course of 48 h using a cellZscope® device–here, the basolateral compartment was prepared with 1650 μL serum free medium and the volume in the apical compartment was filled to 760 μL (ratio 1:2.17). Another triplicate for the same incubation conditions was kept in Transwell® filter cell culture multiple well plates (12 well format) over the course of 48 h. In the multiple well plates the ratio between the apical and the basolateral compartment was 1:3, therefore the starting volume in the apical compartment is 500 μL and 1500 μL in the basolateral compartment. Here, samples for quantitation of transfer of enniatins across the barrier were drawn after 1, 2.5, 6.5, 18, 24, 28, 42 and 48 hours in this given ratio i.e. 30 μL apical and 90 μL basolateral. After 48 h, the final TEER values of the filters from the multiple well plate were measured to ensure the stability of the cell layer throughout the experiment. To double check the integrity of the barrier, lucifer yellow (LY, 50 μM), as a paracellular transfer marker, was applied. The amount of LY found in the basolateral compartment after 1 h was measured at λex = 430 nm and λ em = 540 nm.
After completion of each transport experiment, both active and passive, lucifer yellow (LY) was applied in 50 μM concentration in the apical compartments. Samples were drawn after 1 h and the amount of LY in the basolateral compartment was quantitated via external calibration. The permeability coefficients for LY through cells treated with the solvent control (ACN 0.1% and 0.02%) and through cells treated with the test compounds for the past 48 h were calculated (Table 2). The permeability coefficients range in the same order of magnitude for test substance treated cells and cells incubated with solvent, which is considerably lower than the permeability coefficients derived for ENN B and ENN B1 and indicates an intact and tight monolayer with low paracellular transfer of compounds.

Row | Molecule | Papp (PBCEC) | Permeability coefficient of LY (PBCEC monolayer; after 48 h treatment with 200 nM ENN B1 in both compartments (active)) | Permeability coefficient of LY (PBCEC monolayer; after 48 h treatment with 200 nM ENN B in both compartments (active)) | Permeability coefficient of LY (PBCEC monolayer; after 48 h treatment with 1 μM ENN B1 apically (passive)) | Permeability coefficient of LY (PBCEC monolayer; after 48 h treatment with 1 μM ENN B apically (passive)) | Permeability coefficient of LY (PBCEC monolayer; solvent control ACN 0.02%) | Permeability coefficient of LY (PBCEC monolayer; solvent control ACN 0.1%)
1 | Cn1c(=O)c2c(ncn2C)n(C)c1=O [caffeine] | 15.5 ×10⁻⁶ cm/s | – | – | – | – | – | –
2 | lucifer yellow [LY] | – | 0.9 10^−6 cm/s | 0.7 10^−6 cm/s | 2.2 10^−6 cm/s | 1.9 10^−6 cm/s | 0.2 10^−6 cm/s | 3.2 10^−6 cm/s
